Data published in PubChem BioAssay AID1996.
In brackets after ≈: the same amount, converted by molar mass.

conditions: buffer; pH 7.4; 200.0 µM

| SMILES | solubility kinetic [µg/mL] |
| --- | --- |
| Cc1cc(C(=O)Nc2ccncc2)ccc1[N+](=O)[O-] | 18.4 (≈ 71.5 µM) |
| O=C1N=C(N2CCCCC2)S/C1=C\c1ccccc1F | 4.7 (≈ 16.2 µM) |
| Cc1cccc(C)c1NC(=O)CNC(=O)C1CCCC1 | > 41.2 |
| O=C(c1ccc([N+](=O)[O-])cc1[N+](=O)[O-])N1CCCC1 | > 39.8 |
| CC1(C)CC(=O)C2=C(C1)NC(=O)NC2c1ccccc1Cl (configuration not stated) | 45.6 (≈ 150 µM) |
| COc1ccc2c(c1)nc(CN1CCN(CCO)CC1)n2C | > 45.7 |
| O=[N+]([O-])c1cccc(S(=O)(=O)NC2CC3CCC2C3)c1 (configuration not stated) | 42.8 (≈ 144 µM) |
| O=C1CCC([N+](=O)[O-])C(c2ccccc2C(F)(F)F)N1 (configuration not stated) | > 43.2 |
| COc1cc(NC(=S)N2CCCC2)cc(OC)c1 | 34.8 (≈ 131 µM) |
| O=C(c1cccc([N+](=O)[O-])c1)N1CC2C3C=CC(C3)C2C1 (configuration not stated) | > 42.6 |
| CC1CCc2sc(C(=O)Nc3ccc(C(N)=O)cc3)cc2C1 (configuration not stated) | 3.4 (≈ 10.8 µM) |
| CC1(C)CC(C(N)=S)CCO1 (configuration not stated) | 23.5 (≈ 136 µM) |
| N#Cc1ccccc1OCC(=O)OCC(=O)NC1CCCCC1 | > 47.5 |
| CC1(C)CCc2cc(CN3CCN(c4ccccn4)CC3)ccc2O1 | 47.5 (≈ 141 µM) |
| COc1cc(C(=O)Nc2nnc(C)s2)c([N+](=O)[O-])cc1OC | > 48.6 |
| O=C(NCCNC(=O)c1ccc(Cl)cc1Cl)c1cnccn1 | 37 (≈ 109 µM) |
| Cc1ccc(C)n1-c1ccc(C(=O)/C=C/N(C)C)cc1 | 25.6 (≈ 95.4 µM) |
| CS(=O)(=O)N(CC(=O)N1CCCC1)c1ccc(Cl)cc1 | > 47.5 |
| COc1ccc(OC(C)C(=O)NCC2CCCO2)cc1 (configuration not stated) | > 41.9 |
| NC(=O)NC(=O)COC(=O)c1sc2ccccc2c1Cl | 1.2 (≈ 3.84 µM) |
| Cc1cc(NC(=O)CSc2nc3c(C)c(C)ccc3cc2C)no1 | < 0.2 |
| O=C(CCCCC(=O)Nc1ccccc1)Nc1ccccc1 | 3.1 (≈ 10.5 µM) |
| CCCNC(=O)N1CCC(Cc2ccccc2)CC1 | > 39.1 |
| Cc1csc(=O)n1CC(=O)Nc1ccc(C(C)C)cc1 | 29.4 (≈ 101 µM) |
| CCC1CN(C(=O)NCc2ccc(F)cc2)c2cc(Cl)ccc2O1 (configuration not stated) | 1.3 (≈ 3.73 µM) |

| SMILES | solubility kinetic [µg/mL] |
| --- | --- |
| O=C(NCc1ccc(Cl)cc1)c1csc(-c2cccnc2)n1 | 37.9 (≈ 115 µM) |
| Cc1cccc(NC(=O)Nc2ccc(Cl)c(Cl)c2)n1 | < 0.2 |
| FC(F)(F)c1ccccc1CNCc1ccc2c(c1)OCO2 | 25.8 (≈ 83.4 µM) |
| O=C(NCCCCc1ccccc1)C1CCCC1 | 33.1 (≈ 135 µM) |
| Fc1ccc(CN2CCC(Cc3ccccc3)CC2)cc1F | 8 (≈ 26.5 µM) |
| CCC(=O)OCCNc1cc(SCCC(=O)OC)c2nonc2c1[N+](=O)[O-] | 54.9 (≈ 138 µM) |
| Cc1[nH]c2ccc(C(=O)NCCCN3CCCCC3)cc2c1C | > 47 |
| COc1ccc(NC(=O)Nc2cnccn2)cc1OC | > 41.1 |
| O=C(N/N=C/c1ccncc1)NC1CCCCC1 | > 36.9 |
| Cc1nc(SCC(=O)Nc2ccccc2Cl)oc1C | > 44.5 |
| CCc1ccc(NC(=O)c2cnc(SC)nc2C)cc1 | 17.4 (≈ 60.5 µM) |
| CCOc1ccc(C(C)=O)cc1CN1C(=O)C(=O)N(CC)C1=O | 41.5 (≈ 130 µM) |
| O=C(C1CCCCC1)N1CCN(c2nc(-c3ccc(F)cc3)cs2)CC1 | 1.5 (≈ 4.02 µM) |
| COc1ccccc1CNC(=O)/C=C/C(=O)O | > 35.3 |
| CCOC(=O)Cc1csc(NC(=O)c2cccc([N+](=O)[O-])c2)n1 | > 50.3 |
| NC(=O)COc1cc2oc(=O)c3c(c2cc1Cl)CCCC3 | 7.1 (≈ 23.1 µM) |
| CCOC(=O)CN1C(=O)C(=O)N(Cc2c(F)cccc2Cl)C1=O | 45.6 (≈ 133 µM) |
| C/C(CCC1CC(C)OC1=O)=N\NC(N)=S (configuration not stated) | > 36.5 |
| CC(O)CNCCNCc1cccs1.Cl (configuration not stated) | > 43.1 |
| COc1ccc(OC)c(/C=C(\C)C(=O)c2c(C)cc(C)[nH]c2=O)c1 | 40.4 (≈ 123 µM) |
| COc1ccc2nc(SCC(=O)NCC3CCCO3)c(C#N)cc2c1 (configuration not stated) | 5.2 (≈ 14.5 µM) |
| CC1CCN(S(=O)(=O)c2cccc(S(=O)(=O)N3CCCC3)c2)CC1 | 28.1 (≈ 75.4 µM) |
| CCc1ccc(-c2cnc3nc[nH]c(=O)c3n2)cc1 | > 37.8 |
| Cc1ccc(-c2cc(C(=O)N3CCCCCC3)no2)cc1 | 1.3 (≈ 4.57 µM) |
| CCN1C(=O)c2ccc(C(=O)NCc3ccco3)cc2C1=O | > 44.7 |

Second part, the compound after the results:

| solubility kinetic [µg/mL] | SMILES |
| --- | --- |
| > 51.3 | O=[N+]([O-])c1ccc(Cl)c(S(=O)(=O)NCCc2ccccn2)c1 |
| 35 (≈ 119 µM) | Cc1cc(N2C(=O)Cc3ccccc3C2=O)ccc1C(C)C |
| 3.6 (≈ 7.79 µM) | O=S(=O)(c1ccccc1)c1nc(-c2ccccc2Cl)oc1NCCCN1CCOCC1 |
| 46.4 (≈ 147 µM) | O=C1CSC(c2ccc([N+](=O)[O-])cc2)N1c1ccc(O)cc1 (configuration not stated) |
| 1.3 (≈ 4.49 µM) | O=C1c2cccc3cccc(c23)C(=O)N1c1cccc(O)c1 |
| > 49.1 | CCOC(=O)N1CCN(C(=O)Nc2cccc3ccccc23)CC1 |
| 0.8 (≈ 2.44 µM) | O=C1COc2ccc(C(=O)COc3ccc([N+](=O)[O-])cc3)cc2N1 |
| 12.2 (≈ 49.1 µM) | COc1ccc(-c2csc(N=C(N)N)n2)cc1 |
| 22.5 (≈ 88.8 µM) | O=C(CCC(=O)c1ccccc1)Nc1ccccc1 |
| 0.7 (≈ 2.24 µM) | COc1ccccc1C(=O)NC(=O)Nc1c(C)cc(C)cc1C |
| 3.1 (≈ 12.3 µM) | Cc1ccccc1OCc1nc2ccccc2n1C |
| 41.5 (≈ 123 µM) | COCCN1Cc2cccc(C(=O)NCCc3ccccc3)c2C1=O |
| 0.4 (≈ 1.24 µM) | COC(=O)c1cn(CC(=O)Nc2ccccc2C)c2ccccc12 |
| > 49.5 | COc1ccccc1C(=O)NC(=O)COC(=O)c1nccnc1N |
| > 48.4 | NC(=O)C1Cc2ccccc2CN1S(=O)(=O)c1cccs1 (configuration not stated) |
| 7.9 (≈ 35.6 µM) | COC(=O)c1cc(Cl)nc2ccccc12 |
| < 0.7 | COc1ccccc1/C=C/c1nc2ccc(OC(C)=O)cc2c(=O)o1 |
| 1.7 (≈ 5.16 µM) | CCOc1ccc(S(=O)(=O)c2c[nH]c3ccccc3c2=O)cc1 |
| > 47 | Cn1cccc1/C=N/NC(=O)CSc1nc2ccccc2[nH]1 |

| solubility kinetic [µg/mL] | SMILES |
| --- | --- |
| < 0.3 | CCCOc1ccc(Oc2nc(-c3ccncc3)nc3ccccc23)cc1 |
| 20.8 (≈ 61.3 µM) | CC1CCCC(C)N1C(=O)COc1cccc(Oc2ccccc2)c1 (configuration not stated) |
| 14.3 (≈ 49.8 µM) | COc1ccc(Nc2ccc(C(N)=O)cc2[N+](=O)[O-])cc1 |
| 2.3 (≈ 6.6 µM) | CCC(=O)N(CCc1ccccc1)Cc1cc2cccc(C)c2[nH]c1=O |
| > 43 | O=S(=O)(NC1=NCCCCC1)c1ccc(Cl)cc1 |
| 29.5 (≈ 108 µM) | CNC(=S)Nc1ccc(OCc2ccccc2)cc1 |
| 6.8 (≈ 26.9 µM) | CSc1nccc(Oc2ccccc2Cl)n1 |
| 19.7 (≈ 63.5 µM) | CCOc1ccc(OCC)c(S(=O)(=O)n2ccnc2C)c1 |
| < 0.3 | Cc1ccc(O)c(NC(=O)c2cc(-c3ccccc3)on2)c1 |
| > 39.5 | O=C(O)c1ccc(COc2ccc([N+](=O)[O-])cc2)o1 |
| 5.3 (≈ 16.4 µM) | COc1ccc(NC(=O)/C=C/c2cccc(C(F)(F)F)c2)cn1 |
| 1.2 (≈ 2.99 µM) | N/C(CCS(=O)(=O)c1ccc(Cl)cc1)=N\OC(=O)c1ccc(Cl)cc1 |
| 39.6 (≈ 122 µM) | OC(CNCc1ccccc1F)COc1cccc2ccccc12 (configuration not stated) |
| 50.2 (≈ 147 µM) | CC(C)(C)C(=O)Nc1ccc(C(=O)COC(=O)c2ccccn2)cc1 |
| > 48.7 | COc1ccc(S(=O)(=O)n2cnc3ccccc32)cc1.Cl |
| > 32.6 | COc1cc(Oc2ccccc2)nc(N)n1 |
| 3.5 (≈ 11.9 µM) | COc1ccc(/C=C2\N=C(c3ccc(C)cc3)OC2=O)cc1 |
| 1.8 (≈ 5.17 µM) | O=C(Nc1cccc(O)c1)c1cccc(C(=O)Nc2cccc(O)c2)c1 |
